Patent US20220132758A1, “INTRODUCTION OF ACTIVE SUBSTANCES AND/OR DYE INTO PLANT TISSUE” (priority 2018, published 2022)

Tested on: bark beetle
Assay: Imidacloprid-impregnated beech shaped pieces shot into bark beetle-infested spruce trees
Assay type: in vivo
Conditions: 7% imidacloprid solution; 8 pieces per tree; after 3 weeks; bark 10 to 50 cm above the shooting sites
Experimental: 24 shaped pieces according to FIG. 1c, Z-. X-. Y-direction 45×13×3 mm, angle α 90°, angle β 60°, made of beech wood (Fagus sylvatica) were impregnated with a neonicotinoid, a 7% imidacloprid solution (solvent dichloromethane) and then dried. The chips were shot 8 at a time into bark beetle-infested spruce trees using a gas cramping device (Alsafix AGRAFEUSE SANS FIL 12GASCR). After 3 weeks, the bark in the region 10 to 50 cm above the shooting sites was removed and the feeding tunnels exposed.

O=[N+]([O-])NC1=NCCN1Cc1ccc(Cl)nc1 [imidacloprid]
living larvae in feeding tunnels: No living larvae were found
